{"source": "paper PMC8157322", "about": "“Gd(III)–Pt(IV) theranostic contrast agents for tandem MR imaging and chemotherapy” (Chemical Science, 2020)", "key": {"A2780 cells [1]": {"tested_on": "A2780 cells", "experiment": "MR imaging of cell pellets at 7 T", "assay_type": "cell-based", "conditions": "A2780, 7 T, 6 h incubation; cisplatin 7.5 μM, 1 100 μM, GP1 30 μM, GP2 60 μM"}, "[2]": {"experiment": "T1/T2 relaxivity measurements in PBS", "assay_type": "physicochemical", "conditions": "37 °C", "procedure": "The T1 relaxivity (r1) and T2 relaxivity (r2) of 1, GP1, and GP2 were measured at both low (1.41 T) and high (7 T) magnetic field strength in phosphate-buffered saline (PBS) to quantify how well they behave as MR contrast agents. […] The relaxivity values for 1 are well within the range of what is expected for a small molecule Gd(III) complex.[34] […] At 7 T, there was little change in r1 for both agents, while both r2 values increased, as expected. […]\nsolution. These capillaries were imaged using a Bruker PharmaScan 7 T MR imaging spectrometer (Bruker BioSpin, Billerica, MA, USA). T1 relaxation times were measured using a rapid-acquisition rapid-echo (RARE-VTR) T1-map pulse sequence with static TE (10 ms) and […]\nparameters were as follows: field of view (FOV) = 25 x 25 mm2, matrix size (MTX) = 256 x 256, number of axial slices = 5, slice thickness (SI) = 1.0 mm, and averages (NEX) = 4. T1 analysis was carried out using the image sequence analysis tool in Paravision 5.0 pl2 software (Bruker, Billerica, MA, USA) with monoexponential curve-fitting of image intensities of selected regions of interest (ROIs) for each axial slice. […]\n(§1) Fig. S2 Graph of r1 of (A) GP1 measured at 1.41 T (B) GP1 measured at 7 T (C) GP2 measured at 1.41 T\n(D) GP2 measured at 7 T (E) 1 measured at 1.41 T (F) 1 measured at 7 T. All measurements were taken in PBS at 37 °C (G) 1 measured at 1.41 T with 5 mM GSH (H) GP1 measured at 1.41 T with 5 mM GSH and (I) GP2 measured at 1.41 T with 5 mM GSH.\n(§2) Table S1. r1 of GP1, GP2, and 1 in PBS with 5 mM glutathione at 37 °C\n(§3) GP1 (5 mM GSH) GP2 (5 mM GSH) 1 (5 mM GSH)"}, "[3]": {"experiment": "Relaxivity after incubation in 5 mM GSH in PBS", "assay_type": "physicochemical", "conditions": "1.41 T, PBS with 5 mM glutathione, 37 °C", "procedure": "This is possibly due to an increase in the rotational correlation time (τR) or a change in the inner sphere hydration number (q) of Gd(III). The differences in relaxivity of GP1 and GP2 compared to 1 offers the possibility of monitoring reduction of the agents by MR at both high and low field strength. To test this, GP1, GP2, and 1 were incubated in 5 mM GSH in PBS and the relaxivity was measured (see ESI ^†). The relaxivity of each converged to the same value (r1 of 4.4, 4.5, and 4.6 mM^−1 s^−1 for 1, GP1, and GP2 respectively), indicating the same Gd(III) species was formed after reduction. The significant change in r1 upon reduction of GP1 and GP2 theoretically could be used to monitor intracellular reduction by MR. However, further testing needs to be done to determine if these agents are suitable for this application.\nas §1\n(D) GP2 measured at 7 T (E) 1 measured at 1.41 T (F) 1 measured at 7 T. All measurements were taken\nin PBS at 37 °C (G) 1 measured at 1.41 T with 5 mM GSH (H) GP1 measured at 1.41 T with 5 mM GSH\nand (I) GP2 measured at 1.41 T with 5 mM GSH.\nas §2, §3"}, "HeLa cells [4]": {"tested_on": "HeLa cells", "experiment": "MR imaging of cell pellets at 7 T", "assay_type": "cell-based", "conditions": "6 h incubation, cisplatin 15 μM, 1 100 μM, GP1 60 μM, GP2 250 μM"}, "[5]": {"experiment": "Aqueous solubility (qualitative)", "assay_type": "physicochemical", "conditions": "aqueous solutions / solvents"}, "MCF-7 cells": {"tested_on": "MCF-7 cells", "experiment": "Cell viability assay (CellTiter-Glo 2.0)", "assay_type": "cell-based", "procedure": "(§4) To assess the cytotoxicity of GP1 and GP2in vitro, cell viability assays were performed to determine the IC50 concentrations in three cancer cell lines (A2780, HeLa, and MCF-7). Table 2 summarizes the IC50 concentrations of both agents compared to those of cisplatin and carboplatin. […] For all cell lines, GP1 was less toxic than cisplatin but followed the same trend of highest toxicity in A2780 cells and least toxic in MCF-7 cells. GP1 releases cisplatin intracellularly, therefore the apparent difference in toxicity of the two is likely due to decreased cell permeability of GP1 caused by the Gd(III) complex. However, because GP1 is inert in the extracellular matrix, higher doses can be safely administered to account for the decreased cell permeability. […]\n(§5) lines were grown in a humidified incubator at 37 °C and 5% CO2 and were harvested using 0.25% TrypLE. Cells were grown for 24 hours after plating before each experiment. All solutions were filtered through […] sterile filters before use.\n(§6) Viability Assays. A2780, HeLa, and MCF-7 cells were plated at a density of 3,000 cells per well (100 µL) in an opaque white 96-well plate. Cells were dosed with 100 µL of solutions of GP1, GP2, cisplatin, or carboplatin in MEM and incubated for 48 hours (GP1 or cisplatin) or 72 hours (GP2 or carboplatin). After incubation, 50 µL CellTiter-Glo 2.0 (Promega, Madison, WI) was added to each well and the assay was carried out following the manufacturer’s protocol.\n(§7) Luminescence of the wells was measured using a Synergy H1 microplate reader (BioTek, Winooski, VT). Viability was determined by comparing luminescence readings of the cells treated with agent to untreated control cells. […]"}, "A2780 cells [6]": {"tested_on": "A2780 cells", "experiment": "Cell viability assay (CellTiter-Glo 2.0)", "assay_type": "cell-based", "procedure": "as §4, §5, §6, §7"}, "HeLa cells [7]": {"tested_on": "HeLa cells", "experiment": "Cell viability assay (CellTiter-Glo 2.0)", "assay_type": "cell-based", "procedure": "as §4, §5, §6, §7"}, "A2780 cells [8]": {"tested_on": "A2780 cells", "experiment": "Concentration-dependent cell uptake, Gd and Pt by ICP-MS", "assay_type": "cell-based", "conditions": "incubated near IC50 concentrations, 24 h", "procedure": "(§8) Accumulation of GP1 and GP2 in cells was measured by concentration-dependent uptake experiments in A2780 and HeLa cells. Individual concentration-dependent uptake graphs are found in the ESI. ^†Table 3 compares the accumulation of Gd and Pt in A2780 and HeLa cells that were incubated with GP1, GP2, cisplatin, and carboplatin near their respective IC50 concentrations. For comparison, both cell lines were dosed with complex 1 at similar concentrations as GP1 and GP2. […] First, the accumulation of Gd in both cell lines for both agents is higher than what is typically considered the amount necessary for detection by MR (high μM concentrations).[32,33] […]\nas §7\n(§9) Aliquots of cell suspensions were mixed with the Guava ViaCount Reagent and allowed to stain for 5 minutes. The samples were vortexed for 20 seconds and cell count was determined via manual analysis using a Guava EasyCyte Mini PCA and ViaCount software. […] Performance of the instrument was assessed daily using Guava-Check Beads and the manufacturer’s protocol and Daily Check software.\n(§10) Quantification of Gadolinium and Platinum with Inductively Coupled Plasma Mass Spectrometry. […]"}, "HeLa cells [9]": {"tested_on": "HeLa cells", "experiment": "Concentration-dependent cell uptake, Gd and Pt by ICP-MS", "assay_type": "cell-based", "conditions": "incubated near IC50 concentrations, 24 h", "procedure": "as §8, §7, §9, §10"}}, "data": [{"smiles": "O=C([O-])CN1CCN(CCCCCC(=O)O)CCN(CC(=O)[O-])CCN(CC(=O)[O-])CC1.[Gd+3]", "note": "[Complex 1]", "values": [{"measurement": "T1 of cell pellet", "setting": "A2780 cells [1]", "value": "2170 ± 34", "unit": "ms"}, {"measurement": "Δ R1 (increase in R1 vs untreated control)", "setting": "A2780 cells [1]", "value": 6.8, "unit": "%"}, {"measurement": "r1 (T1 relaxivity)", "setting": "[2]; 1.41 T", "value": 4.1, "unit": "mM⁻¹ s⁻¹"}, {"measurement": "r1 (T1 relaxivity)", "setting": "[2]; 7 T", "value": 4.7, "unit": "mM⁻¹ s⁻¹"}, {"measurement": "r1 with 5 mM GSH", "setting": "[3]", "value": 4.4, "unit": "mM⁻¹ s⁻¹"}, {"measurement": "T1 of cell pellet", "setting": "HeLa cells [4]", "value": "2178 ± 42", "unit": "ms"}, {"measurement": "Δ R1 (increase in R1 vs untreated control)", "setting": "HeLa cells [4]", "value": 5.5, "unit": "%"}]}, {"smiles": "[NH2][Pt]([NH2])([OH])([OH])([Cl])[Cl]", "note": "[Complex 2]", "values": [{"measurement": "Solubility", "setting": "[5]", "value": "insoluble in most solvents"}]}, {"smiles": "[NH2][Pt]1([NH2])([OH])([OH])[O]C(=O)C2(CCC2)C(=O)[O]1", "note": "[Complex 3]", "values": [{"measurement": "Solubility", "setting": "[5]", "value": "insoluble in most solvents"}]}, {"smiles": "N.N.O=C([O-])C1(C(=O)[O-])CCC1.[Pt+2]", "note": "[Carboplatin, carboplatin]", "values": [{"measurement": "IC50", "setting": "MCF-7 cells; MCF-7, 72 h incubation", "value": "124 ± 4", "unit": "µM"}, {"measurement": "IC50", "setting": "A2780 cells [6]; A2780, 72 h incubation", "value": "15.3 ± 5.8", "unit": "µM"}, {"measurement": "IC50", "setting": "HeLa cells [7]; 72 h incubation", "value": "71.2 ± 4.9", "unit": "µM"}, {"measurement": "Cell accumulation of Pt", "setting": "A2780 cells [8]", "value": "0.22 ± 0.02", "unit": "fmol per cell"}, {"measurement": "Cell accumulation of Pt", "setting": "HeLa cells [9]", "value": "0.60 ± 0.11", "unit": "fmol per cell"}]}, {"smiles": "N.N.[Cl][Pt][Cl]", "note": "[Cisplatin, cisplatin]", "values": [{"measurement": "T1 of cell pellet", "setting": "A2780 cells [1]", "value": "2216 ± 26", "unit": "ms"}, {"measurement": "Δ R1 (increase in R1 vs untreated control)", "setting": "A2780 cells [1]", "value": 4.6, "unit": "%"}, {"measurement": "IC50", "setting": "MCF-7 cells; MCF-7, 48 h incubation", "value": "22.4 ± 2", "unit": "µM"}, {"measurement": "IC50", "setting": "A2780 cells [6]; A2780, 48 h incubation", "value": "7.6 ± 2.3", "unit": "µM"}, {"measurement": "IC50", "setting": "HeLa cells [7]; 48 h incubation", "value": "14.7 ± 1.2", "unit": "µM"}, {"measurement": "T1 of cell pellet", "setting": "HeLa cells [4]", "value": "2236 ± 19", "unit": "ms"}, {"measurement": "Δ R1 (increase in R1 vs untreated control)", "setting": "HeLa cells [4]", "value": 2.7, "unit": "%"}]}]}
